Reference: PMC12472597, “Pan-Amyloid Reactive Peptides p5+14 and p5R Exhibit Specific Charge-Dependent Binding to Glycosaminoglycans” (Pharmaceuticals, 2025)
“Also recorded” adds a separate entry of the source. No end group written: not given here.

What was measured:
[1] = cited from earlier work
Excerpt: The concept of pan-amyloid reactive agents is not a new one. […] The binding sites are recurring with defined periodicity, which results in Congo red birefringence when stained amyloid is viewed under cross polarized illumination,a and a red shift in the emission maximum and increase in the quantum yield when thiofl ...

[2] = GAG microarray binding (47 GAGs); conditions: biotinylated peptide
Description: To assess the binding selectivity of biotinylated p5+14 and p5R peptides, we used a commercial glycosaminoglycan (GAG) binding microarray (ZBiotech, CO, USA), which contains 16 subarrays each consisting of 47 differing GAGs (varying lengths, charges, and composition (Supplementary Figure S1)) plus internal controls. Increasing concentrations of each peptide were evaluated on the subarrays. The GAG arrays consisted of exemplar hyaluronic acid (HA), heparin, chondroitin sulfate A/C (CS-AC), chondroitin sulfate D (CS-D), dermatan sulfate (DS), heparan sulfate (HS with low to intermediate sulfation levels), heparan sulfate (HS with high sulfation levels), and […] (KS). Background corrected binding of peptides p5+14 and p5R, at 2 µg/mL, to each GAG is shown in Figure 4A,B (additional concentrations are shown in Supplementary Figure S2). […] For heparin and highly sulfated HS, the binding intensity closely paralleled the total negative charge for each GAG (Figure 4C).
Glycosaminoglycan (GAG) microarray binding studies were performed by Z Biotech (Z Biotech, LLC, Aurora, CO, USA). Briefly, microarrays were laid out in a 16-subarray arrangement with 47 GAG or 24 heparan sulfate (HS) binding targets per subarray. Spotted arrays were blocked at room temperature (RT) for 30 min with Glycan Array Blocking Buffer (Z Biotech, LLC, Aurora, CO, USA) before being washed. Biotinylated peptides were diluted in blocking buffer + 1% bovine serum albumin to final concentrations of 50, 10, 2, 0.4, and 0.08 µg/mL and the solutions added to the arrays for 1 h at RT. […] The fluorescence emission was quantified by scanning at 532 nm and evaluated using Mapix microarray software (Innopsys, Carbonne, France). […]
(§1) Data visualization, statistical analysis, and correlations were performed using GraphPad Prism v 9.4.1 or later. […] Apparent affinities (Ec50) of peptides to array substrates were calculated using sigmoidal 4PL curve fitting to calculate the Ec50 in µg/mL, which was converted to molarity using the appropriate peptide molecular weight.

[3] = GAG array apparent EC50, heparin (GAG16); type: binding; conditions: biotinylated peptide, 1 h RT, n = 4
Excerpt: (§2) One exemplar GAG from the groups of heparin, HS, CS-AC, and CS-D was chosen to assess the Ec50 (concentration at the midpoint of binding). Bound peptide fluorescence was plotted against the concentration of peptide and a sigmoidal 4PL binding curve fit to the data (Figure 6). For GAGs with high peptide binding (heparin, HS, and highly sulfated CS-D), Ec50 calculations could be performed for both biotinylated p5+14 and p5R (Figure 6A,C,D). […] The differential binding potency, despite the shared selectivity, is likely due to the higher net charge on p5+14 (+12) compared with p5R (+8).
(§3) Glycosaminoglycan (GAG) microarray binding studies were performed by Z Biotech (Z Biotech, LLC, Aurora, CO, USA). Briefly, microarrays were laid out in a 16-subarray arrangement with 47 GAG or 24 heparan sulfate (HS) binding targets per subarray. […] The fluorescence emission was quantified by scanning at 532 nm and evaluated using Mapix microarray software (Innopsys, Carbonne, France). […]
as §1

[4] = GAG array apparent EC50, CS-AC (GAG22); type: binding; conditions: biotinylated peptide, n = 4; for EC50: 1 h RT, 4PL fit
Excerpt: as §2
(§4) Glycosaminoglycan (GAG) microarray binding studies were performed by Z Biotech (Z Biotech, LLC, Aurora, CO, USA). Briefly, microarrays were laid out in a 16-subarray arrangement with 47 GAG or 24 heparan sulfate (HS) binding targets per subarray. Spotted arrays were blocked at room temperature (RT) for 30 min with Glycan Array Blocking Buffer (Z Biotech, LLC, Aurora, CO, USA) before being washed. Biotinylated peptides were diluted in blocking buffer + 1% bovine serum albumin to final concentrations of 50, 10, 2, 0.4, and 0.08 µg/mL and the solutions added to the arrays for 1 h at RT. The arrays were then washed again and streptavidin-Cy3 (0.2 µg/mL) added, followed by a 1-h incubation. The fluorescence emission was quantified by scanning at 532 nm and evaluated using Mapix microarray software (Innopsys, Carbonne, France). Background control data were subtracted from binding signals before the data were averaged.
(§5) Data visualization, statistical analysis, and correlations were performed using GraphPad Prism v 9.4.1 or later. Correlations of peptide binding to microarray substrates were performed using Pearson’s correlations. Apparent affinities (Ec50) of peptides to array substrates were calculated using sigmoidal 4PL curve fitting to calculate the Ec50 in µg/mL, which was converted to molarity using the appropriate peptide molecular weight.

[5] = GAG array apparent EC50, CS-D (GAG28); type: binding; conditions: biotinylated peptide; for EC50: 1 h RT, 4PL fit, n = 4
Excerpt: as §2, §4, §5

[6] = GAG array apparent EC50, HS (GAG46); type: binding; conditions: biotinylated peptide, highly sulfated HS, 4PL fit, n = 4
Excerpt: as §2, §3, §1

[7] = Heparan sulfate microarray binding (24 HS); conditions: biotinylated peptide; 0.4, 2, 10 µg/mL; n = 6
Description: This array comprised 24 structurally unique synthetic HS domains that varied in length, net charge, and charge density (Supplementary Figure S3). The binding of biotinylated peptides p5+14 (Figure 7A) and p5R (Figure 7B) to the HS array was performed as above, using increasing concentrations of peptide. The intensity of binding for both peptides, based on the fluorescence intensity, was closely related to the total charge (total sulfations) of the ligand (Figure 7, shown in red).
as §3, with “subarray. Spotted arrays were blocked at room temperature (RT) for 30 min with Glycan Array Blocking Buffer (Z Biotech, LLC, Aurora, CO, USA) before being washed.” for “subarray.”
as §1

[8] = HS array apparent Ec50, HS13; type: binding; conditions: biotinylated peptide; increasing peptide concentration; n = 6
Description: (§6) Biotinylated peptide binding to four of the HS glycans in the array were analyzed further to assess the estimated binding potency (Figure 9). […] The HS glycans used in this binding analysis contained fewer saccharide units and less total charge compared with that shown in Figure 6D, which may explain the difference in the estimated potency data.
as §3, with “subarray. Spotted arrays were blocked at room temperature (RT) for 30 min with Glycan Array Blocking Buffer (Z Biotech, LLC, Aurora, CO, USA) before being washed.” for “subarray.”
as §1

[9] = HS array apparent Ec50, HS16; type: binding; conditions: biotinylated peptide, 4PL fit, n = 6
Description: as §6
as §3, with “subarray. Spotted arrays were blocked at room temperature (RT) for 30 min with Glycan Array Blocking Buffer (Z Biotech, LLC, Aurora, CO, USA) before being washed.” for “subarray.”
as §1

[10] = HS array apparent Ec50, HS22; type: binding; conditions: biotinylated peptide, 4PL fit, n = 6
Description: as §6
as §3, with “subarray. Spotted arrays were blocked at room temperature (RT) for 30 min with Glycan Array Blocking Buffer (Z Biotech, LLC, Aurora, CO, USA) before being washed.” for “subarray.”
as §1

[11] = HS array apparent Ec50, HS24; type: binding; conditions: biotinylated peptide, 4PL fit, n = 6
Description: as §6
as §3, with “subarray. Spotted arrays were blocked at room temperature (RT) for 30 min with Glycan Array Blocking Buffer (Z Biotech, LLC, Aurora, CO, USA) before being washed.” for “subarray.”
as §1

[12] = Circular dichroism secondary structure; type: physicochemical
Description: Peptide secondary structures were analyzed by circular dichroism using an Olis RSM 1000 (On-line Instrument Systems, Inc., Bogart, GA, USA). Each study consisted of three replicates that were averaged and the dilution/background spectra subtracted. Non-biotinylated peptides were diluted to 0.05 mg/mL in phosphate buffered saline (PBS). For experiments involving the addition of enoxaparin (Amphastar Pharmaceuticals Inc., Rancho Cucamonga, CA., USA), enoxaparin was added to diluted peptide in PBS to reach a final concentration of 0–66.7 µg/mL. For experiments involving the addition of 2,2,2-trifluoroethanol (TFE) (Thermo Fisher Scientific, Waltham, MA, USA), TFE was added to diluted peptide in PBS to reach a final concentration of 0–40%.

[13] = PET/CT imaging of patients with systemic amyloidosis; type: in vivo, human; conditions: PET/CT at 5 h post injection
Description: Patients were imaged with p5+14 as part of the first-in-human, open label, Phase 1 study (NCT03678259). Synthesis of ^124I-labeled p5+14 has previously been reported. Briefly, lyophilized human grade peptide (Attralus, Inc., Naples, FL, USA) was radiolabeled on the day of use with iodine-124 (3D Imaging, Little Rock, AR, USA) using iodogen as the oxidant. Subjects were administered a 2 mCi dose of I-124 (<2 mg of peptide) intravenously. PET/CT images were acquired from crown to thighs at 5 h post injection, using a Siemens Biograph PET/CT (Siemens Healthineers, Malvern, PA, USA) with 5 min bed positions for the PET and a low dose CT (120 kVp, 50 effective mAs).
Data were reconstructed using a 3-dimensional ordered subset expectation maximization algorithm with attenuation and prompt gamma corrections, a 168 × 168 image matrix, and an image resolution of ~8 mm full width at half maximum. CT reconstruction utilized a medium smoothing kernel and 4 mm reconstruction increments. Patient PET/CT images were generated using Inveon Research Workplace software (Ed. 4.2 [4.2.0.15]; Siemens Preclinical Solutions).

[14] = clinical studies (NCT02603172); cited from earlier work
Description: The impact of accessory proteins in amyloid deposits remains unclear; however, some components have been evaluated extensively. Serum amyloid P component, for example, was thought to stabilize the amyloid pathology and render it resistant to proteolysis and immunological clearance. This hypothesis was tested using a small molecule drug (miridesap) that crosslinks SAP, thereby clearing it from amyloid deposits, potentially leading to their clearance. […] This was ...

[15] = cited from earlier work; remark: listed apart in the source
Excerpt: Both peptides consist of a repeating heptad structure with periodic lysine (p5+14; -XXKXXXK-) or arginine (p5R; -XXRXXXR-) amino acids. […] These peptides also avidly bind other highly negatively charged linear molecules such as heparin and hypersulfated HSPG, the latter of which is associated with amyloid deposits in vivo [18, 20, 21, 22].

[16] = array in blocking buffer + 1% BSA, 0.08-50 µg/mL, streptavidin-Cy3, 532 nm, read-out: Apparent EC50
[17] = converted from µg/mL using peptide molecular weight, read-out: Apparent EC50 (Molarity)
[18] = HS array in blocking buffer + 1% BSA, 1 h RT, streptavidin-Cy3, 532 nm, read-out: Apparent Ec50
[19] = converted from µg/mL using peptide molecular weight, read-out: Apparent Ec50 (Molarity)
[20] = initial spectrum, non-biotinylated peptide 0.05 mg/mL in PBS, n = 3

Molecule: serum amyloid P-component: biological reagent that exhibits pan-amyloid reactivity
- Amyloid binding [1]: exhibit pan-amyloid reactivity

Molecule: GGGYSKAQKAQAKQAKQAQKAQKAQAKQAKQAQKAQKAQAKQAKQ [p5+14, 45-residue polybasic lysine heptad-repeat peptide, net charge +12]
- GAG binding selectivity ([2]; 2 µg/mL, background corrected fluorescence, n = 4): preferential binding to heparin and highly sulfated HS GAGs; also recorded: Little to no binding to HA, CS-AC, CS-D (with singular exception), DS, and KS
- Binding to GAGs that were not heparin or HS ([2]; 2 µg/mL, n = 4): very little binding
- Affinity for heparin and HS immobilized in the arrays ([2]; compared with biotinylated p5R, GAG and HS arrays): higher affinity for both heparin and HS immobilized in the arrays
- EC50 ([3]; array in blocking buffer + 1% BSA, 0.08-50 µg/mL, streptavidin-Cy3, 532 nm, sigmoidal 4PL fit, read-out: Apparent EC50): 1.2 µg/mL
- EC50 ([3]; converted from µg/mL using peptide molecular weight, 4PL fit, read-out: Apparent EC50 (Molarity)): 251 nM
- EC50 [4, 16]: 3.38 µg/mL
- EC50 [4, 17]: 708 nM
- Binding to CS-AC ([4]; fluorescence au vs peptide concentration): saturable binding
- Reactivity with CS-D GAGs ([5]; GAG28 compared with GAG23-GAG27): abrupt intense reactivity of the peptides with GAG28, but none of the other CS GAGs (GAG23-GAG27)
- EC50 [5, 16]: 1.33 µg/mL
- EC50 [5, 17]: 280 nM
- EC50 ([6]; array in blocking buffer + 1% BSA, 0.08-50 µg/mL, 1 h RT, streptavidin-Cy3, 532 nm, read-out: Apparent EC50): 0.932 µg/mL
- EC50 [6, 17]: 196 nM
- HS binding pattern [7]: the binding to HS appeared to correlate precisely with the total charge of the HS
- Binding to HS13 [8]: did not reach saturation
- EC50 [9, 18]: 0.668 µg/mL
- EC50 [9, 19]: 140 nM
- EC50 [10, 18]: 0.473 µg/mL
- EC50 [10, 19]: 99.3 nM
- EC50 [11, 18]: 0.448 µg/mL
- EC50 [11, 19]: 94 nM
- Secondary structure in solution ([12]; PBS pH 7.2): partially unfolded states in solution
- Secondary structure with low molecular weight heparin ([12]; in PBS with enoxaparin): adopt an α-helical structure
- CD large minimum [12, 20]: 208 nm
- CD smaller minimum [12, 20]: 222 nm
- Ratio of the CD minima with enoxaparin ([12]; non-biotinylated peptide 0.05 mg/mL in PBS, higher concentrations of enoxaparin (0-66.7 µg/mL), n = 3): ≥ 1
- Ratio of the CD minima with TFE ([12]; non-biotinylated peptide 0.05 mg/mL in PBS, increasing TFE (0-40%), n = 3): ≥ 1
- Organ uptake in patients ([13]; 2 mCi (<2 mg of peptide) i.v., patients with systemic amyloidosis): consistent with uptake in organs and tissues clinically known or suspected of amyloid deposition
- Organ uptake in healthy subjects ([13]; 2 mCi i.v., healthy subjects): no pathologic uptake was observed

Molecule: O=C(O)[C@H]1CCCN1C(=O)CCCCC(=O)N1CCC[C@@H]1C(=O)O [miridesap]
- Removal of amyloid in patients [14]: failed to promote the meaningful removal of amyloid in patients

Molecule: Cc1ccc2c(c1)sc(-c1ccc(N(C)C)cc1)[n+]2C [thioflavin T]
- Amyloid binding [1]: bind all types of amyloid but not in a specific way

Molecule: GGGYSRAQRAQARQARQAQRAQRAQARQARQ [p5R]
- In vivo biodistribution vs basic fibroblast growth factor ([15]; ^125I-labeled): differed dramatically from that of the quintessential HSPG binding protein, basic fibroblast growth factor

Molecule: Nc1c(/N=N/c2ccc(-c3ccc(/N=N/c4cc(S(=O)(=O)O)c5ccccc5c4N)cc3)cc2)cc(S(=O)(=O)O)c2ccccc12 [Congo red]
- Amyloid binding [1]: bind all types of amyloid but not in a specific way

Molecule: bFGF: prototypical HS binding peptide [reference compound]
- Binding in healthy tissues ([15]; healthy liver tissue and renal glomerulae): strong reactivity with healthy liver tissue and renal glomerulae
